Data as given in patent US8586555B2, “Immunomodulatory compositions, formulations, and methods for use thereof” (Dynavax Technologies Corporation, priority 2001, dated 2013).

What was measured:
Assay type in all cases: cell-based
[1] = tested on: human peripheral blood mononuclear cells (hPBMC); assay: human PBMC assay, Example 5 (96 well plates, premixed); details: for IFN-α Mean / IFN-γ Mean: mean of donors 28051-28054
Experimental: (§1) Hexameric oligonucleotides were tested for immunomodulatory activity alone and complexed with lactic acid/glycolic acid copolymer microcarrier beads using a human peripheral blood mononuclear cells (hPBMC) assay. Peripheral blood was collected from healthy volunteers by venipuncture using heparinized syringes. Blood was layered onto a FICOLL® (Amersham Pharmacia Biotech) cushion and centrifuged. hPBMCs, located at the FICOLL® interface, were collected, then washed twice with cold phosphate buffered saline (PBS). The cells were resuspended and cultured in 48 well plates at 2×10^6 cells/mL at 37° C. in RPMI 1640 with 10% heat-inactivated human AB serum plus 50 units/mL penicillin, 50 μg/mL streptomycin, 300 μg/mL glutamine, 1 mM sodium pyruvate, and 1×MEM non-essential amino acids (NEAA).
(§2) Oligonucleotides were tested as single agents, or in combination with PLGA microspheres (unmodified or cationic). All oligonucleotides contained 100% phosphorothioate linkages and were tested at 20 μg/ml. The PLGA microcarriers were used at 250 μg/ml. When oligos were tested with PLGA microcarriers, the oligo and the microcarriers were added at the same time to the culture. The cells were cultured in the in the presence of test samples for 24 hours, then cell-free medium was collected from each well and assayed for IFN-γ and IFN-α concentration. Two different oligonucleotides were used as controls: a first oligonucleotide known to have immunostimulatory activity (a 22mer oligonucleotide containing an ISS (“ISS+,” 5′-[…]-3′(SEQ ID NO:2)) and a second oligonucleotide of similar sequence but lacking immunostimulatory activity (“ISS−,” 5′-[…]-3′ (SEQ ID NO:1)). SAC (PANSORBIN® CalBiochem, 1/5000 dilution) and a untreated culture were used as additional positive and negative controls, respectively. SAC contains Staph. aureus (Cowan I) cell material. All samples were assayed in duplicate.
(§3) IFN-γ and IFN-α were assayed using CYTOSCREEN™ ELISA kits from BioSource International, Inc., according to the manufacturer's instructions.
(§4) The immunomodulatory activity of the oligonucleotides used in Examples 3 and 4 was confirmed with the human PBMC assay using PBMCs from an additional four donors (donors 28051-28054). Oligonucleotides were tested alone or in combination with cationic PLGA as described in Example 3, except that 96 well plates were used instead of 48 well plates and the oligonucleotides were premixed with the cationic microspheres at room temperature for 15 minutes before they were added to the culture, rather than being added simultaneously to the culture.

[2] = tested on: human peripheral blood mononuclear cells (hPBMC); assay: human PBMC assay, Example 7 (oligo 20 μg/ml, cPLGA 100 μg/ml)
Experimental: as §1, §2, §3, §4
Additional oligonucleotides, some incorporating modified bases, were tested for immunomodulatory activity in the human PBMC assay. Oligonucleotides were tested alone or in combination with cPLGA as described in Example 5. The oligonucleotides were premixed with the cationic PLGA microspheres for 15 minutes at room temperature at concentrations of 20 μg/ml and 100 μg/ml, respectively.

[3] = tested on: human peripheral blood mononuclear cells (hPBMC); assay: human PBMC assay, Example 6
Experimental: as §1, §2, §3, §4
Additional oligonucleotides were tested for immunomodulatory activity in the human PBMC assay. Oligonucleotides were tested alone or in combination with cPLGA as described in Example 5.
Additional oligonucleotides were tested using hPBMCs from volunteers 154-157 using the same assay. Results, which are shown in Table 7, confirm the activity of oligonucleotides fitting the formula 5′-X1TCGX2-3′, where the oligonucleotide is a 3-6mer, X1 is zero or one nucleotide and X2 is zero to three nucleotides.

[4] = tested on: human peripheral blood mononuclear cells (hPBMC); assay: human PBMC assay, Example 4 (oligos and PLGA premixed 15 minutes); details: for IFN-α Mean / IFN-γ Mean: mean of donors 28044, 28045
Experimental: as §1, §2, §3
Additional hexameric and pentameric oligonucleotides were tested for immunomodulatory activity in the PBMC assay. Oligonucleotides 6-6 (5′-TCGAGA-3′), 6-8 (5′-GTCGAC-3′), 6-9 (5′-GTCGTT-3′), 6-2 (5′-TCGTTT-3′), 6-3 (5′-TTCGTT-3′), 6-4 (5′-TTTCGT-3′), 5-1 (5′-TCGTC-3′), and 5-2 (5′-TCGTT-3′) were tested alone or in combination with cationic PLGA as described in Example 3 except that the oligos and PLGA were premixed for 15 minutes room temperature before addition to the cultures. The test articles were assayed using PBMC isolated from donors 28044 and 28045.

[5] = delivered as IMO/MC complexes (cPLGA)

For 5′-TCGTTT-3′ [Oligonucleotide 6-2], the “immunomodulatory activity” value ([1]; delivered alone) was “inactive”, the “immunomodulatory activity” value [1, 5] was “highly active” and the IFN-α ([1]; donor 28051) was 0 pg/mL. It also gave an IFN-γ ([1]; donor 28051) of 1 pg/mL, an IFN-α ([1]; donor 28052) of 2 pg/mL and an IFN-γ ([1]; donor 28052) of 0 pg/mL. It also gave an IFN-α ([1]; donor 28053) of 10 pg/mL, an IFN-γ ([1]; donor 28053) of 3 pg/mL and an IFN-α ([1]; donor 28054) of 0 pg/mL. The IFN-γ ([1]; donor 28054) was 1 pg/mL, the “IFN-α Mean” value [1] was 3 pg/mL and the “IFN-γ Mean” value [1] was 1 pg/mL. The IFN-α ([2]; donor 28115) was 0 pg/mL, the IFN-γ ([2]; donor 28115) was 3 pg/mL and the IFN-α ([2]; donor 28116) was 0 pg/mL. For the same substance, the IFN-γ ([2]; donor 28116) was 0 pg/mL, the IFN-α ([2]; donor 28117) was 0 pg/mL and the IFN-γ ([2]; donor 28117) was 5 pg/mL. The IFN-α ([2]; donor 28118) was 0 pg/mL, the IFN-γ ([2]; donor 28118) was 0 pg/mL and the “IFN-α Mean” value ([2]; mean of donors 28115-28118) was 0 pg/mL. For the same substance, the “IFN-γ Mean” value ([2]; mean of donors 28115-28118) was 2 pg/mL, the “immunomodulatory activity” value ([3]; delivered as oligonucleotide/MC complex (cPLGA)) was “highly active” and the IFN-α ([3]; donor 28075) was 36 pg/mL. The IFN-γ ([3]; donor 28075) was 8 pg/mL, the IFN-α ([3]; donor 28076) was 6 pg/mL and the IFN-γ ([3]; donor 28076) was 18 pg/mL. For the same substance, the IFN-α ([3]; donor 28077) was 66 pg/mL, the IFN-γ ([3]; donor 28077) was 5 pg/mL and the IFN-α ([3]; donor 28078) was 101 pg/mL. For the same substance, the IFN-γ ([3]; donor 28078) was 14 pg/mL, the “IFN-α Mean” value ([3]; mean of donors 28075-28078) was 53 pg/mL and the “IFN-γ Mean” value ([3]; mean of donors 28075-28078) was 11 pg/mL. For the same substance, the IFN-α ([4]; donor 28044) was 0 pg/mL, the IFN-γ ([4]; donor 28044) was 30 pg/mL and the IFN-α ([4]; donor 28045) was 0 pg/mL. For the same substance, the IFN-γ ([4]; donor 28045) was 0 pg/mL, the “IFN-α Mean” value [4] was 0 pg/mL and the “IFN-γ Mean” value [4] was 15 pg/mL.

5′-GTCGAC-3′ [Oligonucleotide 6-8] was tested, and the “immunomodulatory activity” value ([1]; delivered alone) was “inactive”, the “immunomodulatory activity” value [1, 5] was “highly active” and the IFN-α ([1]; donor 28051) was 1 pg/mL. The IFN-γ ([1]; donor 28051) was 0 pg/mL, the IFN-α ([1]; donor 28052) was 0 pg/mL and the IFN-γ ([1]; donor 28052) was 0 pg/mL. For the same substance, the IFN-α ([1]; donor 28053) was 6 pg/mL, the IFN-γ ([1]; donor 28053) was 1 pg/mL and the IFN-α ([1]; donor 28054) was 0 pg/mL. For the same substance, the IFN-γ ([1]; donor 28054) was 2 pg/mL, the “IFN-α Mean” value [1] was 2 pg/mL and the “IFN-γ Mean” value [1] was 1 pg/mL. It also gave an IFN-α ([4]; donor 28044) of 0 pg/mL, an IFN-γ ([4]; donor 28044) of 6 pg/mL and an IFN-α ([4]; donor 28045) of 0 pg/mL. The IFN-γ ([4]; donor 28045) was 0 pg/mL, the “IFN-α Mean” value [4] was 0 pg/mL and the “IFN-γ Mean” value [4] was 3 pg/mL.

In the case of 5′-TTTCGT-3′ [Oligonucleotide 6-4], the “immunomodulatory activity” value [1, 5] is reported as “variable activity”, the IFN-α ([1]; donor 28051) is reported as 0 pg/mL and the IFN-γ ([1]; donor 28051) is reported as 3 pg/mL. It also gave an IFN-α ([1]; donor 28052) of 2 pg/mL, an IFN-γ ([1]; donor 28052) of 0 pg/mL and an IFN-α ([1]; donor 28053) of 11 pg/mL. It also gave an IFN-γ ([1]; donor 28053) of 2 pg/mL, an IFN-α ([1]; donor 28054) of 0 pg/mL and an IFN-γ ([1]; donor 28054) of 0 pg/mL. For the same substance, the “IFN-α Mean” value [1] was 3 pg/mL, the “IFN-γ Mean” value [1] was 1 pg/mL and the IFN-α ([4]; donor 28044) was 0 pg/mL. For the same substance, the IFN-γ ([4]; donor 28044) was 13 pg/mL, the IFN-α ([4]; donor 28045) was 0 pg/mL and the IFN-γ ([4]; donor 28045) was 0 pg/mL. The “IFN-α Mean” value [4] was 0 pg/mL and the “IFN-γ Mean” value [4] was 6 pg/mL.

For 5′-TCGTC-3′ [Oligonucleotide 5-1], the “immunomodulatory activity” value ([1]; delivered alone) was “inactive”, the “immunomodulatory activity” value [1, 5] was “highly active” and the IFN-α ([1]; donor 28051) was 0 pg/mL. For the same substance, the IFN-γ ([1]; donor 28051) was 1 pg/mL, the IFN-α ([1]; donor 28052) was 3 pg/mL and the IFN-γ ([1]; donor 28052) was 0 pg/mL. It also gave an IFN-α ([1]; donor 28053) of 1 pg/mL, an IFN-γ ([1]; donor 28053) of 1 pg/mL and an IFN-α ([1]; donor 28054) of 1 pg/mL. For the same substance, the IFN-γ ([1]; donor 28054) was 0 pg/mL, the “IFN-α Mean” value [1] was 1 pg/mL and the “IFN-γ Mean” value [1] was 1 pg/mL. For the same substance, the IFN-α ([4]; donor 28044) was 0 pg/mL, the IFN-γ ([4]; donor 28044) was 6 pg/mL and the IFN-α ([4]; donor 28045) was 0 pg/mL. The IFN-γ ([4]; donor 28045) was 7 pg/mL, the “IFN-α Mean” value [4] was 0 pg/mL and the “IFN-γ Mean” value [4] was 6 pg/mL.

5′-GTCGTT-3′ [Oligonucleotide 6-9] was tested, and the “immunomodulatory activity” value ([1]; delivered alone) was “inactive”, the “immunomodulatory activity” value [1, 5] was “highly active” and the IFN-α ([1]; donor 28051) was 0 pg/mL. For the same substance, the IFN-γ ([1]; donor 28051) was 1 pg/mL, the IFN-α ([1]; donor 28052) was 0 pg/mL and the IFN-γ ([1]; donor 28052) was 0 pg/mL. It also gave an IFN-α ([1]; donor 28053) of 6 pg/mL, an IFN-γ ([1]; donor 28053) of 2 pg/mL and an IFN-α ([1]; donor 28054) of 0 pg/mL. For the same substance, the IFN-γ ([1]; donor 28054) was 1 pg/mL, the “IFN-α Mean” value [1] was 2 pg/mL and the “IFN-γ Mean” value [1] was 1 pg/mL. It also gave an IFN-α ([4]; donor 28044) of 0 pg/mL, an IFN-γ ([4]; donor 28044) of 6 pg/mL and an IFN-α ([4]; donor 28045) of 0 pg/mL. For the same substance, the IFN-γ ([4]; donor 28045) was 0 pg/mL, the “IFN-α Mean” value [4] was 0 pg/mL and the “IFN-γ Mean” value [4] was 3 pg/mL.
